# Results from US20080194585A1, “Fungicidal Pyrazine Derivatives” (priority 2005, published 2008).
# Marks after values point to notes of the source that are not given here.
# What was measured:
# Sclerotinia sclerotiorum = assay: Test C: cucumber white mold, preventive spray on cucumber seedlings; conditions: for pest or weed control at 200 ppm: Sclerotinia sclerotiorum, in Cucumis sativus, 168 h, read-out: Test C disease control rating, 200 ppm
# [1] = tested on: Colletotrichum orbiculare; assay: Test B: cucumber Colletotrichum anthracnose, preventive spray on cucumber seedlings; conditions: for pest or weed control at 200 ppm: Colletotrichum orbiculare, in Cucumis sativus, 144 h, read-out: Test B disease control rating, 200 ppm
# Rhizoctonia oryzae = assay: Test G: turf brown patch, preventive spray on creeping bent grass seedlings; conditions: for pest or weed control at 200 ppm: Waitea circinata, in Agrostis stolonifera, topical, 144 h, read-out: Test G disease control rating, 200 ppm
# Procedure: (the causal agent of turf brown patch) and incubated in a saturated atmosphere at 27° C. for 24 h, and then moved to a growth chamber at 27° C. for 5 days, after which disease ratings were made.
# Plasmopara viticola = assay: Test D: grape downy mildew, spray after inoculation of grape seedlings; format: in vivo; conditions: for pest or weed control at 200 ppm: Plasmopara viticola, 168 h, read-out: Test D disease control rating
# Text: Upon removal, disease ratings were made. […] A dash (-) indicates no test results.
# Septoria nodorum = assay: Test H: wheat glum blotch, preventive spray on wheat seedlings; conditions: for pest or weed control at 200 ppm: Parastagonospora nodorum, in Triticum aestivum, topical, 168 h, read-out: Test H disease control rating, 200 ppm
# Procedure: (the causal agent of wheat glum blotch) and incubated in a saturated atmosphere at 20° C. for 48 h, and then moved to a growth chamber at 22° C. for 5 days, after which disease ratings were made.
# [2] = tested on: Erysiphe graminis f. sp. tritici; assay: Test L: wheat powdery mildew, preventive spray on wheat seedlings; conditions: for pest or weed control at 200 ppm: Blumeria graminis, in Triticum aestivum, 168 h, read-out: Test L disease control rating, 200 ppm
# Phytophthora infestans = assay: whole plant or invertebrate; format: in vivo
# [3] = tested on: Puccinia recondita f. sp. tritici; assay: Test K: wheat leaf rust, preventive spray on wheat seedlings; conditions: for pest or weed control at 200 ppm: Puccinia recondita, in Triticum aestivum, 192 h, read-out: Test K disease control rating
# Pythium aphanidermatum = assay: Test A: bluegrass pythium blight, preventive spray on bluegrass seedlings; conditions: for pest or weed control at 200 ppm: Pythium aphanidermatum, 120 h, read-out: Test A disease control rating
# Botrytis cinerea = assay: Test E: tomato botrytis, preventive spray on tomato seedlings; conditions: for pest or weed control at 200 ppm: Botrytis cinerea, in Solanum lycopersicum, topical, 72 h, read-out: Test E disease control rating
# fusarium graminearium = assay: Test I: wheat head scab, preventive spray on wheat seedlings; conditions: for pest or weed control at 200 ppm: Fusarium, in Triticum aestivum, topical, 192 h, read-out: Test I disease control rating, 200 ppm; for Test I disease control rating: 200 ppm
# Procedure: (the causal agent of wheat head scab) and incubated in a saturated atmosphere at 20° C. for 72 h, and then moved to a growth chamber at 22° C. for 5 days, after which disease ratings were made.
# Septoria tritici = assay: Test J: wheat leaf blotch, preventive spray on wheat seedlings; format: in vivo
# Text: A dash (-) indicates no test results.
# [4] = 40 ppm (marked *), 100 = 100% disease control, 0 = no control
# [5] = 200 ppm, 100 = 100% disease control, 0 = no control
structure (smiles),measurement,setting,value
"CC(C)Cn1c(-c2c(F)cccc2F)c(Cl)nc(-n2cccn2)c1=O [Compound 1, 5-Chloro-6-(2,6-difluorophenyl)-1-(2-methylpropyl)-3-(1H-pyrazol-1-yl)-2(1H)-pyrazinone]",pest or weed control at 200 ppm,Sclerotinia sclerotiorum,0%
same,pest or weed control at 200 ppm,[1],0%
same,pest or weed control at 200 ppm,Rhizoctonia oryzae,78%
same,pest or weed control at 200 ppm,Plasmopara viticola; 200 ppm,0%
same,pest or weed control at 200 ppm,Septoria nodorum,99%
same,pest or weed control at 200 ppm,[2],93%
same,pest or weed control at 200 ppm,"Phytophthora infestans; Phytophthora infestans, in Solanum lycopersicum, topical, 144 h, read-out: Test F disease control rating",0%
same,pest or weed control at 200 ppm,[3],99%
same,pest or weed control at 200 ppm,Pythium aphanidermatum,0%
same,pest or weed control at 200 ppm,Botrytis cinerea,100%
same,pest or weed control at 200 ppm,fusarium graminearium,0%
"CC(C)Cn1c(-c2c(F)cccc2F)c(Cl)nc(C#N)c1=O [Compound 5, 6-Chloro-5-(2,6-difluorophenyl)-3,4-dihydro-4-(2-methylpropyl)-3-oxopyrazinecarbonitrile]",pest or weed control at 200 ppm,Sclerotinia sclerotiorum,0%
same,pest or weed control at 200 ppm,[1],33%
same,pest or weed control at 200 ppm,Rhizoctonia oryzae,26%
same,pest or weed control at 200 ppm,Plasmopara viticola; 200 ppm,24%
same,pest or weed control at 200 ppm,Septoria nodorum,0%
same,pest or weed control at 200 ppm,[2],97%
same,pest or weed control at 200 ppm,[3],99%
same,pest or weed control at 200 ppm,Pythium aphanidermatum,71%
same,pest or weed control at 200 ppm,Botrytis cinerea,71%
same,pest or weed control at 200 ppm,fusarium graminearium,20%
Cn1c(-c2ccccc2F)c(Cl)nc(-n2cncn2)c1=O [Compound 15],Test C disease control rating,Sclerotinia sclerotiorum; 200 ppm,0%
same,Test B disease control rating,[1]; 200 ppm,0%
same,Test G disease control rating,Rhizoctonia oryzae; 200 ppm,0%
same,Test D disease control rating,Plasmopara viticola; 200 ppm,0%
same,Test H disease control rating,Septoria nodorum; 200 ppm,0%
same,Test L disease control rating,[2]; 200 ppm,0%
same,Test F disease control rating,Phytophthora infestans; 200 ppm,0%
same,Test K disease control rating,[3]; 200 ppm,0%
same,Test A disease control rating,Pythium aphanidermatum; 200 ppm,0%
same,Test E disease control rating,Botrytis cinerea; 200 ppm,0%
same,Test I disease control rating,fusarium graminearium,0%
CC(C)Cn1c(-c2c(F)cccc2Cl)c(Cl)nc(-n2cccn2)c1=O [compound 9],Test C disease control rating,Sclerotinia sclerotiorum; 200 ppm,98%
same,Test B disease control rating,[1]; 200 ppm,100%
same,Test G disease control rating,Rhizoctonia oryzae; 200 ppm,82%
same,Test D disease control rating,Plasmopara viticola; 200 ppm,49%
same,Test H disease control rating,Septoria nodorum; 200 ppm,100%
same,Test L disease control rating,[2]; 200 ppm,99%
same,Test F disease control rating,Phytophthora infestans; 200 ppm,88%
same,Test K disease control rating,[3]; 200 ppm,100%
same,Test A disease control rating,Pythium aphanidermatum; 200 ppm,62%
same,Test E disease control rating,Botrytis cinerea; 200 ppm,100%
same,Test I disease control rating,fusarium graminearium,80%
Cn1c(-c2ccccc2F)c(Cl)nc(-n2cccn2)c1=O [compound 14],Test C disease control rating,Sclerotinia sclerotiorum; 200 ppm,0%
same,Test B disease control rating,[1]; 200 ppm,0%
same,Test G disease control rating,Rhizoctonia oryzae; 200 ppm,0%
same,Test D disease control rating,Plasmopara viticola; 200 ppm,0%
same,Test H disease control rating,Septoria nodorum; 200 ppm,0%
same,Test L disease control rating,[2]; 200 ppm,21%
same,Test F disease control rating,Phytophthora infestans; 200 ppm,27%
same,Test K disease control rating,[3]; 200 ppm,0%
same,Test A disease control rating,Pythium aphanidermatum; 200 ppm,0%
same,Test E disease control rating,Botrytis cinerea; 200 ppm,79%
same,Test I disease control rating,fusarium graminearium,0%
Cc1cccc(-c2c(Cl)nc(-n3cccn3)c(=O)n2CC(C)C)c1 [compound 248],Test C disease control rating,Sclerotinia sclerotiorum; 40 ppm (*),0* %
same,Test J disease control rating,Septoria tritici; 40 ppm (*),44* %
same,Test B disease control rating,[1]; 40 ppm (*),0* %
same,Test G disease control rating,Rhizoctonia oryzae; 40 ppm (*),0* %
same,Test D disease control rating,Plasmopara viticola; 40 ppm (*),0* %
same,Test H disease control rating,Septoria nodorum; 40 ppm (*),0* %
same,Test L disease control rating,[2]; 40 ppm (*),0* %
same,Test F disease control rating,Phytophthora infestans; 40 ppm (*),0* %
same,Test K disease control rating,[3]; 40 ppm (*),0* %
same,Test A disease control rating,Pythium aphanidermatum; 40 ppm (*),0* %
same,Test E disease control rating,Botrytis cinerea; 40 ppm (*),66* %
CC(C)Cn1c(-c2cccc(C#N)c2)c(Cl)nc(-n2cncn2)c1=O [compound 249],Test C disease control rating,Sclerotinia sclerotiorum; [4],0* %
same,Test J disease control rating,Septoria tritici; [4],26* %
same,Test B disease control rating,[1]; [4],0* %
same,Test G disease control rating,Rhizoctonia oryzae; [4],0* %
same,Test D disease control rating,Plasmopara viticola; [4],0* %
same,Test H disease control rating,Septoria nodorum; [4],0* %
same,Test L disease control rating,[2]; [4],0* %
same,Test F disease control rating,Phytophthora infestans; [4],0* %
same,Test K disease control rating,[3]; [4],0* %
same,Test A disease control rating,Pythium aphanidermatum; [4],0* %
same,Test E disease control rating,Botrytis cinerea; [4],0* %
CC(C)Cn1c(-c2cccc(C#N)c2)c(Cl)nc(-n2cccn2)c1=O [compound 250],Test C disease control rating,Sclerotinia sclerotiorum; [4],0* %
same,Test J disease control rating,Septoria tritici; [4],30* %
same,Test B disease control rating,[1]; [4],0* %
same,Test G disease control rating,Rhizoctonia oryzae; [4],0* %
same,Test D disease control rating,Plasmopara viticola; [4],0* %
same,Test H disease control rating,Septoria nodorum; [4],0* %
same,Test L disease control rating,[2]; [4],0* %
same,Test F disease control rating,Phytophthora infestans; [4],0* %
same,Test K disease control rating,[3]; [4],0* %
same,Test A disease control rating,Pythium aphanidermatum; [4],0* %
same,Test E disease control rating,Botrytis cinerea; [4],0* %
CC(C)Cn1c(-c2cccc3c2OCO3)c(Cl)nc(-n2cccn2)c1=O [compound 251],Test C disease control rating,Sclerotinia sclerotiorum; [5],0%
same,Test J disease control rating,Septoria tritici; [5],97%
same,Test B disease control rating,[1]; [5],0%
same,Test G disease control rating,Rhizoctonia oryzae; [5],21%
same,Test D disease control rating,Plasmopara viticola; [5],0%
same,Test H disease control rating,Septoria nodorum; [5],82%
same,Test L disease control rating,[2]; [5],0%
same,Test F disease control rating,Phytophthora infestans; [5],0%
same,Test K disease control rating,[3]; [5],17%
same,Test A disease control rating,Pythium aphanidermatum; [5],0%
same,Test E disease control rating,Botrytis cinerea; [5],99%
CC(C)Cn1c(-c2ccc3c(c2)OC(F)(F)O3)c(Cl)nc(-n2cccn2)c1=O [compound 252],Test C disease control rating,Sclerotinia sclerotiorum; [5],0%
same,Test J disease control rating,Septoria tritici; [5],53%
same,Test B disease control rating,[1]; [5],0%
same,Test G disease control rating,Rhizoctonia oryzae; [5],0%
same,Test D disease control rating,Plasmopara viticola; [5],0%
same,Test H disease control rating,Septoria nodorum; [5],0%
same,Test L disease control rating,[2]; [5],0%
same,Test F disease control rating,Phytophthora infestans; [5],0%
same,Test K disease control rating,[3]; [5],0%
same,Test A disease control rating,Pythium aphanidermatum; [5],0%
same,Test E disease control rating,Botrytis cinerea; [5],0%
CC(C)Cn1c(-c2cc3c(cc2Cl)OCO3)c(Cl)nc(-n2cccn2)c1=O [compound 253],Test C disease control rating,Sclerotinia sclerotiorum; [5],0%
same,Test J disease control rating,Septoria tritici; [5],66%
same,Test B disease control rating,[1]; [5],0%
same,Test G disease control rating,Rhizoctonia oryzae; [5],0%
same,Test D disease control rating,Plasmopara viticola; [5],0%
same,Test H disease control rating,Septoria nodorum; [5],0%
same,Test L disease control rating,[2]; [5],0%
same,Test F disease control rating,Phytophthora infestans; [5],0%
same,Test K disease control rating,[3]; [5],0%
same,Test A disease control rating,Pythium aphanidermatum; [5],0%
same,Test E disease control rating,Botrytis cinerea; [5],0%
Cc1cc(C)c(-c2c(Cl)nc(-n3cccn3)c(=O)n2CC(C)C)c(C)c1 [compound 254],Test C disease control rating,Sclerotinia sclerotiorum; [4],0* %
same,Test J disease control rating,Septoria tritici; [4],99* %
same,Test B disease control rating,[1]; [4],0* %
same,Test G disease control rating,Rhizoctonia oryzae; [4],41* %
same,Test D disease control rating,Plasmopara viticola; [4],0* %
same,Test H disease control rating,Septoria nodorum; [4],0* %
same,Test L disease control rating,[2]; [4],54* %
same,Test F disease control rating,Phytophthora infestans; [4],0* %
same,Test K disease control rating,[3]; [4],59* %
same,Test A disease control rating,Pythium aphanidermatum; [4],0* %
same,Test E disease control rating,Botrytis cinerea; [4],94* %
